Measured values as given in paper PMC7156724, “Potent BRD4 inhibitor suppresses cancer cell-macrophage interaction” (Nature Communications, 2020).
Several values for one entry are separate records, joined by “and”; a condition that tells them apart may be missing. Equal values may be shown once.

Experiments:
[1] = system: NCI-H211 small cell lung cancer (SCLC) cells; assay: AlamarBlue assay, NCI-H211; format: cell-based; conditions: for Cellular activity in SCLCs (H211), alamarBlue: Fig.1e, replicates
Procedure: (§1) 3. AlamarBlue assay. AlamarBlue was made by resazurin sodium salt (Sigma, Cat
(§2) # 199303) dissolved in PBS.
(§3) NCI-H211, MDA-MB231 and A375 cells were plated in 96-well plates at approximately 30% confluence and left overnight to adhere. In the following day, […]
(§4) of treatment, 10 μl AlamarBlue reagent (0.3 mg/ml) was added to each well, and after 18h, the florescence intensity in each well was measured using a top-reading fluorescent plate reader with excitation at 530 nm and emission at 590 nm. […]

[2] = system: MDA-MB231 triple negative breast cancer (TNBC) cells; assay: AlamarBlue assay, MDA-MB231; format: cell-based, human; conditions: for Cellular activity in TNBCs (MDA-MB231), alamarBlue: Fig.1f, replicates
Procedure: as §1, §2, §3, §4

[3] = system: phosphorylated BRD4 and c-MYC; assay: Western blot of p-BRD4, BRD4 and c-MYC in solid tumor cell lines; format: cell-based, human; conditions: 50 nM, 24 h
Procedure: (§5) Fig. 2 NHWD-870 inhibited BRD4 phosphorylation and c-MYC expression, and suppressed cell growth. a Representative western blot analysis of p-BRD4 (s484/488), BRD4, c-MYC, and GAPDH after treatment of MDA-MB231, SUM159, A2780 ES-2, and H526 cells with JQ-1 or NHWD-870 at the indicated concentrations for 24 h. GAPDH served as the loading control. Selected from three independent experiments. b MTT assays of H526, A2780, ES-2, and MDA-MB231 cells treated with JQ-1 or NHWD-870 at the indicated concentrations for 5 days. Data are presented as mean ± SEM from three independent experiments. c, d Clonogenic assays of H526, A2780, ES-2 and MDA-MB231 cells treated with 250 nM JQ-1 or NHWD-870 for 5 days. Shown are representative images (c) and quantification of colonies (d). […] Shown are representative images (e) and quantification of relative colony sizes (f). Scale bar, 50 μm. Data are presented as mean ± SEM from five independent experiments. p values were calculated using two-tailed, unpaired t tests in this figure. **p < 0.01; ***p < 0.001. Source data are provided as a Source Data file. […]
4. Protein extraction and w estern blot anal ysis. Freshly dissected unfixed tissue was homogenized in lysis buffer. The lysates were centrifuged at 13,000g for 10 minutes at 4°C. Supernatants were collected and determined with a Bradford Protein Assay kit (Bio-Rad, Hercules, CA). The cell lysates were subjected to SDS-PAGE followed by immunoblotting (Immobilon P; Millipore, Milford, MA) with specific antibodies followed by detection using an enhanced chemilumine scence kit (Amersham Life Science, Arlington Heights, IL). […]

H526 cells = assay: Clonogenic (colony formation) assay, H526; format: cell-based, human; conditions: H526, 250 nM, 5 days
Procedure: as §5
(§6) 5. Colony formation assay. Cells were seeded in 6-well plates at 3,000 cells/well […]
(§7) every week. […] Colony numbers were calculated with imageJ version

A2780 cells = assay: Clonogenic (colony formation) assay, A2780; format: cell-based, human; conditions: A2780, 250 nM, 5 days
Procedure: as §5, §6, §7

ES-2 cells = assay: Clonogenic (colony formation) assay, ES-2; format: cell-based, human; conditions: ES-2, 250 nM, 5 days
Procedure: as §5, §6, §7

MDA-MB231 cells = assay: Clonogenic (colony formation) assay, MDA-MB231; format: cell-based, human; conditions: MDA-MB231, 250 nM, 5 days
Procedure: as §5, §6, §7

[4] = system: BRD4 binding to the HIF1α promoter; parameters: method as in PMID 30224758, PMID 29054992; conditions: MDA-MB 231 cells ref 45, 46; cited from earlier work

For `Cc1sc2c(c1C)C(c1ccc(Cl)cc1)=N[C@@H](CC(=O)OC(C)(C)C)c1nnc(C)n1-2` [JQ1, reference compound], the IC50 ([1]; 72 h treatment, nM, read-out: IC50, cellular activity in NCI-H211 (alamarBlue)) was 102 nM, the “Cellular activity in SCLCs (H211), alamarBlue” value (“Cellular activity in SCLCs” for short) ([1]; concentration 0.0169701) was 8.89 and 26.86 and the “Cellular activity in SCLCs” value ([1]; concentration 0.0398488) was 1.52 and 21.49. The “Cellular activity in SCLCs” value ([1]; concentration 0.137272) was 0.75 and 21.87, the “Cellular activity in SCLCs” value ([1]; concentration 0.614394) was 3.74 and 1.29 and the “Cellular activity in SCLCs” value ([1]; concentration 1.09152) was 4.01 and 4.44. For the same compound, the “Cellular activity in SCLCs” value ([1]; concentration 1.56864) was 8.74 and 4.85, the “Cellular activity in SCLCs” value ([1]; concentration 2.04576) was 60.7 and 49.9 and the “Cellular activity in SCLCs” value ([1]; concentration 3) was 94.26 and 94.75. The “Cellular activity in SCLCs” value ([1]; concentration column prints 2.52288) was 94.02 and 94.2, the IC50 ([2]; 72 h treatment, nM, read-out: IC50, cellular activity in MDA-MB231 (alamarBlue)) was 65 nM and the “Cellular activity in TNBCs (MDA-MB231), alamarBlue” value (“Cellular activity in TNBCs” for short) ([2]; concentration 0.15) was 0.75 and 21.87. For the same compound, the “Cellular activity in TNBCs” value ([2]; concentration 0.6) was 3.74 and 1.29, the “Cellular activity in TNBCs” value ([2]; concentration 1) was 19.01 and 19.44 and the “Cellular activity in TNBCs” value ([2]; concentration 1.5) was 38.74 and 34.85. For the same compound, the “Cellular activity in TNBCs” value ([2]; concentration 2) was 60.7 and 49.9, the “Cellular activity in TNBCs” value ([2]; concentration 2.5) was 94.02 and 94.2 and the “Cellular activity in TNBCs” value ([2]; concentration 3) was 94.26 and 94.75. For the same compound, the “Cellular activity in TNBCs” value ([2]; concentration -0.3) was 1.52 and 21.49, the “Cellular activity in TNBCs” value ([2]; concentration -0.9) was 8.89 and 26.86 and the “effect on phosphorylated BRD4 and c-MYC (western blot)” value [3] was “no effect”. The “Clone Number (clonogenic assay)” value (H526 cells) was 627 and 705 and 686 and 632 and 603, the “Clone Number (clonogenic assay)” value (A2780 cells) was 839 and 794 and 803 and 802 and 753 and the “Clone Number (clonogenic assay)” value (ES-2 cells) was 575 and 505 and 619 and 501 and 621. For the same compound, the “Clone Number (clonogenic assay)” value (MDA-MB231 cells) was 1294 and 1205 and 1074 and 1155 and 1020 and the “BRD4 binding to the HIF1α promoter (ChIP-seq)” value [4] was “reduced BRD4 binding to the HIF1α promoter”.
